Laboratory results as given in ChEMBL document CHEMBL1201862, “PubChem BioAssay data set” (2004).
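Each compound was tested at five concentrations against cells in 96-well plates for 48 hours. GI50 is the concentration that inhibits growth by half.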 Active and inactive are the calls of the source. Cut-off read from the data, not from the text of the source: active = GI50 up to about 1.1 µM and inactive = higher.

How the values were obtained:
Test in all cases: NCI tumour cell line growth inhibition, 48 h
786-0 = tested on: 786-0
A498 = tested on: A498
A549 = tested on: A549
ACHN = tested on: ACHN
BT-549 = tested on: BT-549
CCRF-CEM = tested on: CCRF-CEM
COLO 205 = tested on: COLO 205
DU-145 = tested on: DU-145
HCC 2998 = tested on: HCC 2998
HCT-116 = tested on: HCT-116
HCT-15 = tested on: HCT-15
HL-60 = tested on: HL-60
HOP-62 = tested on: HOP-62
HOP-92 = tested on: HOP-92
HT-29 = tested on: HT-29
Hs-578T = tested on: Hs-578T
IGROV-1 = tested on: IGROV-1
K562 = tested on: K562
KM12 = tested on: KM12
LOX IMVI = tested on: LOX IMVI
M14 = tested on: M14
MCF7 = tested on: MCF7
MDA-MB-231 = tested on: MDA-MB-231
MDA-MB-435 = tested on: MDA-MB-435
MOLT-4 = tested on: MOLT-4
Malme-3M = tested on: Malme-3M
NCI-H226 = tested on: NCI-H226
NCI-H23 = tested on: NCI-H23
NCI-H460 = tested on: NCI-H460
NCI-H522 = tested on: NCI-H522
NCI/ADR-RES = tested on: NCI/ADR-RES
OVCAR-3 = tested on: OVCAR-3
OVCAR-4 = tested on: OVCAR-4
OVCAR-5 = tested on: OVCAR-5
OVCAR-8 = tested on: OVCAR-8
PC-3 = tested on: PC-3
RPMI-8226 = tested on: RPMI-8226
RXF 393 = tested on: RXF 393
SF-268 = tested on: SF-268
SF-295 = tested on: SF-295
SF-539 = tested on: SF-539
SK-MEL-28 = tested on: SK-MEL-28
SK-MEL-5 = tested on: SK-MEL-5
SK-OV-3 = tested on: SK-OV-3
SN12C = tested on: SN12C
SNB-19 = tested on: SNB-19
SNB-75 = tested on: SNB-75
SR = tested on: SR
SW-620 = tested on: SW-620
T47D = tested on: T47D
TK-10 = tested on: TK-10
U-251 = tested on: U-251
UACC-62 = tested on: UACC-62
UO-31 = tested on: UO-31
CAKI-1 = tested on: CAKI-1
EKVX = tested on: EKVX
SK-MEL-2 = tested on: SK-MEL-2
UACC-257 = tested on: UACC-257

CC1(C)O[C@@H]2[C@@H](COC(=O)c3ccccc3)C[C@@H](C#N)[C@@H]2O1
GI50 (786-0): > 100 µM (inactive) | GI50 (A498): > 100 µM (inactive) | GI50 (A549): > 100 µM (inactive) | GI50 (ACHN): > 100 µM (inactive) | GI50 (BT-549): > 100 µM (inactive) | GI50 (CCRF-CEM): > 100 µM (inactive) | GI50 (COLO 205): > 100 µM (inactive) | GI50 (DU-145): > 100 µM (inactive) | GI50 (HCC 2998): > 100 µM (inactive) | GI50 (HCT-116): > 100 µM (inactive) | GI50 (HCT-15): > 100 µM | GI50 (HL-60): > 100 µM (inactive) | GI50 (HOP-62): > 100 µM (inactive) | GI50 (HOP-92): > 100 µM (inactive) | GI50 (HT-29): > 100 µM (inactive) | GI50 (Hs-578T): 29.2 µM (inactive) | GI50 (IGROV-1): > 100 µM (inactive) | GI50 (K562): > 100 µM (inactive) | GI50 (KM12): > 100 µM (inactive) | GI50 (LOX IMVI): > 100 µM (inactive) | GI50 (M14): > 100 µM (inactive) | GI50 (MCF7): > 100 µM (inactive) | GI50 (MDA-MB-231): > 100 µM (inactive) | GI50 (MDA-MB-435): > 100 µM (inactive) | GI50 (MOLT-4): > 100 µM (inactive) | GI50 (Malme-3M): > 100 µM (inactive) | GI50 (NCI-H226): > 100 µM (inactive) | GI50 (NCI-H23): > 100 µM (inactive) | GI50 (NCI-H460): > 100 µM (inactive) | GI50 (NCI-H522): > 100 µM (inactive) | GI50 (NCI/ADR-RES): > 100 µM (inactive) | GI50 (OVCAR-3): > 100 µM (inactive) | GI50 (OVCAR-4): > 100 µM (inactive) | GI50 (OVCAR-5): > 100 µM (inactive) | GI50 (OVCAR-8): > 100 µM (inactive) | GI50 (PC-3): > 100 µM (inactive) | GI50 (RPMI-8226): > 100 µM (inactive) | GI50 (RXF 393): > 100 µM (inactive) | GI50 (SF-268): > 100 µM (inactive) | GI50 (SF-295): > 100 µM (inactive) | GI50 (SF-539): > 100 µM (inactive) | GI50 (SK-MEL-28): > 100 µM (inactive) | GI50 (SK-MEL-5): > 100 µM (inactive) | GI50 (SK-OV-3): > 100 µM (inactive) | GI50 (SN12C): > 100 µM (inactive) | GI50 (SNB-19): > 100 µM (inactive) | GI50 (SNB-75): > 100 µM (inactive) | GI50 (SR): > 100 µM (inactive) | GI50 (SW-620): > 100 µM (inactive) | GI50 (T47D): > 100 µM (inactive) | GI50 (TK-10): > 100 µM (inactive) | GI50 (U-251): > 100 µM (inactive) | GI50 (UACC-62): > 100 µM (inactive) | GI50 (UO-31): > 100 µM (inactive)

CC(C)NC(=O)OCc1c(COC(=O)NC(C)C)c(-c2ccc[n+](COC(=O)C3CC3)c2)n2c1CCC2
GI50 (786-0): 27 µM (inactive) | GI50 (A498): 35.9 µM (inactive) | GI50 (A549): 89.1 µM (inactive) | GI50 (ACHN): 20 µM (inactive) | GI50 (BT-549): 76.6 µM (inactive) | GI50 (CAKI-1): 20.1 µM (inactive) | GI50 (CCRF-CEM): 30.4 µM (inactive) | GI50 (COLO 205): 70.5 µM (inactive) | GI50 (DU-145): 37.6 µM (inactive) | GI50 (EKVX): > 100 µM (inactive) | GI50 (HCC 2998): > 100 µM (inactive) | GI50 (HCT-116): 60.5 µM (inactive) | GI50 (HCT-15): 87.3 µM | GI50 (HL-60): 29.6 µM (inactive) | GI50 (HOP-62): 49.1 µM (inactive) | GI50 (HOP-92): 40.8 µM (inactive) | GI50 (HT-29): 79.4 µM (inactive) | GI50 (Hs-578T): 79.3 µM (inactive) | GI50 (IGROV-1): > 100 µM (inactive) | GI50 (K562): 32.6 µM (inactive) | GI50 (KM12): > 100 µM (inactive) | GI50 (LOX IMVI): 38.8 µM (inactive) | GI50 (M14): 85.9 µM (inactive) | GI50 (MCF7): 49.5 µM (inactive) | GI50 (MDA-MB-231): > 100 µM (inactive) | GI50 (MDA-MB-435): > 100 µM (inactive) | GI50 (MOLT-4): 14.9 µM (inactive) | GI50 (Malme-3M): > 100 µM (inactive) | GI50 (NCI-H226): > 100 µM (inactive) | GI50 (NCI-H23): 29.6 µM (inactive) | GI50 (NCI-H460): 24.2 µM (inactive) | GI50 (NCI-H522): 27.1 µM (inactive) | GI50 (NCI/ADR-RES): 47.1 µM (inactive) | GI50 (OVCAR-3): > 100 µM (inactive) | GI50 (OVCAR-4): 45.8 µM (inactive) | GI50 (OVCAR-5): > 100 µM (inactive) | GI50 (OVCAR-8): 55 µM (inactive) | GI50 (PC-3): 50.5 µM (inactive) | GI50 (RPMI-8226): 60.4 µM (inactive) | GI50 (RXF 393): 34.2 µM (inactive) | GI50 (SF-268): 28.4 µM (inactive) | GI50 (SF-295): 45.9 µM (inactive) | GI50 (SF-539): 44.7 µM (inactive) | GI50 (SK-MEL-28): > 100 µM (inactive) | GI50 (SK-MEL-2): 57.1 µM (inactive) | GI50 (SK-MEL-5): > 100 µM (inactive) | GI50 (SK-OV-3): 49.5 µM (inactive) | GI50 (SN12C): 48.1 µM (inactive) | GI50 (SNB-19): > 100 µM (inactive) | GI50 (SNB-75): 70.6 µM (inactive) | GI50 (SR): 3.51 µM (inactive) | GI50 (SW-620): > 100 µM (inactive) | GI50 (T47D): 86.7 µM (inactive) | GI50 (TK-10): > 100 µM (inactive) | GI50 (U-251): 56 µM (inactive) | GI50 (UACC-257): > 100 µM (inactive) | GI50 (UACC-62): 27.6 µM (inactive) | GI50 (UO-31): 41.2 µM (inactive)
